Results on five compounds are retold here after US8546376B2, “Pharmaceutical compounds” (Almac Discovery Limited, priority 2009, dated 2013).

Some results are limits rather than exact numbers.

Test [1] addresses T1, AKT2 (Homo sapiens, UniProt P31751).
T1 construct: purchased SignalChem
Briefly: AKT Kinase Assay (IMAP fluorescent polarisation) vs AKT2. The note with it: activated AKT2, FAM Crosstide substrate. In kind it is biochemical. A digest of the protocol: (§1)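 IC50 values came from non-linear regression of % inhibition relative to vehicle, measured by IMAP fluorescence polarisation (485/528 nm) after a 1 h room-temperature reaction of FAM-Crosstide and ATP. Each activated isoform was first exposed to compound for 45 min across fourteen half-log doses.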

The target in test [2] is T2, AKT3 (Homo sapiens, UniProt Q9Y243).
T2 construct: purchased SignalChem
Put plainly: AKT Kinase Assay (IMAP fluorescent polarisation) vs AKT3. The format is biochemical. Particulars: activated AKT3, FAM Crosstide substrate. Put shortly:
as §1

Test [3] has as its target T3, AKT1 (Homo sapiens, UniProt P31749).
T3 construct: purchased SignalChem
Briefly: AKT Kinase Assay (IMAP fluorescent polarisation) vs AKT1. The format is biochemical. The note with it: activated AKT1, FAM Crosstide substrate. A digest of the protocol: as §1

Test [4] deals with PC3 and/or LnCaP cell lines. Briefly: In vitro cell proliferation assay (Cell Titre Glo). In kind it is cell-based. The note with it: Homo sapiens, 72 hours, read-out: inhibition of proliferation IC50. How it is done:
Testing of the compounds was also performed using in vitro cell proliferation assays:
Cell Titre Glo (Promega) is a highly sensitive homogeneous reagent used to determine the viability of cells. The reagent uses a stable form of luciferase to measure ATP as an output of viability. The luminescent values generated in the assay are directly proportional to the number of viable cells in your assay.
The following materials were used: White, clear bottomed 96 well assay plates (Costar); Cell titre Glo reagents; LnCaP (ECACC) cells grown in RPMI medium (Invitrogen) supplemented with 10 mM HEPES (Invitrogen), 1 mM Sodium pyruvate (Invitrogen), 2 mM L-Glutamine (Invitrogen) and 10% Foetal calf serum (Invitrogen); PC3 (ECACC) cells grown in RPMI medium supplemented with 10% Foetal calf serum (Invitrogen); Trypsin (Invitrogen); PBS (Invitrogen); Biotek Synergy 4 Hybrid Plate reader; 96 well plate shaker (Stuart SSL5); Eppendorf 5414 desk-top centrifuge; Beckman Coulter cell counter Z1 single threshold system.
Prostate cell lines, PC3 and LnCaP, were washed, detached and re-suspended in their respective fresh media. The cells were pelleted by centrifugation (Eppendorf 5414) and spent supernatant discarded. The cells were re-suspended by vortex mixing, counted and seeded into clear bottom white 96 well plates at a density of 5000 cells per well. The cells were incubated (Sanyo) overnight at 37° C. ([…]), and next day treated with increasing concentrations of test compound formulated in fresh medium. The plates were returned to the incubator for 72 hours. […]
The cell viability post compound treatment was determined by the luminescent intensity emitted from the drug treated wells in the plate. In brief, the assay plate was placed in the Biotex Synergy 4 Hybrid plate reader and the luminescence read in each well. The compound treated wells were compared to vehicle treated wells and the % inhibition of cell viability calculated.
The data was analysed using GraphPad Prism, with IC50 values generated using non-linear regression of the data set.

Test [5] relates to AKT phosphorylation. Briefly: Phosphorylation status of AKT/PI3K pathway members via western blotting. The format is cell-based. The note with it: for 48 h at 10 μM. From the text:
Analysis of Compound Effects on AKT Signalling Pathways
Phosphorylation status of various members of the AKT/PI3K pathway were investigated via western blotting.
Materials Required for this Assay: 20× Running buffer (Invitrogen); Rainbow marker ladder (GE Healthcare); Reducing buffer (Invitrogen); 20× Transfer buffer (Invitrogen); 4-12% Bis-Tris Gels (Invitrogen); Filter paper (Whatman); Nitrocellulose (Amersham); ECL plus detection reagents (GE Healthcare); Radiographic film (Kodak); Biorad Protein determination reagent (Biorad); AKT pathway signalling antibodies (Cell Signalling)
LnCaP and PC3 cell lines were washed, detached and re-suspended in fresh medium. They were seeded in 90 mm^2 dishes and incubated overnight ([…]/5% CO2) to allow adherence. […]
The medium was removed and the cells placed on ice and washed in PBS. […] The resultant supernatant was assayed for protein content using the Bradford method (Biorad) and equal quantities of protein calculated and heated in sample reducing buffer to 95° C. for ten minutes. […]
The membranes were used to determine difference in total AKT, pSer473 AKT, pGSK3β and total GSK3β (all sourced from Cell Signalling). […] The membranes were washed three times in PBS and incubated with the respective secondary antibodies (Sigma Aldrich) for two hours and the proteins were detected using ECL plus detection reagents (GE Healthcare).
Background: A western blot detects proteins with antibodies after separation by electrophoresis.

T2 sequence (Q9Y243 whole entry): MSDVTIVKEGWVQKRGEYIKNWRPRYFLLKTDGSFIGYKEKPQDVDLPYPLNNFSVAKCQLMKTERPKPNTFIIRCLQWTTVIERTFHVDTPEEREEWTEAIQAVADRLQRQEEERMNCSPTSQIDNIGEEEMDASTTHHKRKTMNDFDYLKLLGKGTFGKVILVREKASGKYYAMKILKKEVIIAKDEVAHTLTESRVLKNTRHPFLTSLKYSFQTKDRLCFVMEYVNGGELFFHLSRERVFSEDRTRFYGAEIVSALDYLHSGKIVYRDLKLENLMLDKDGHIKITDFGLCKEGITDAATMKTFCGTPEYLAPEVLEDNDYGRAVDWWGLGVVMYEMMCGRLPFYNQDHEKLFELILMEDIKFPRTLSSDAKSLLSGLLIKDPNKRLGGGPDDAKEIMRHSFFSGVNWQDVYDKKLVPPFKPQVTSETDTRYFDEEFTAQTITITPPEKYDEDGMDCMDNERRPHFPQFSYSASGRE
T1 sequence (P31751 whole entry): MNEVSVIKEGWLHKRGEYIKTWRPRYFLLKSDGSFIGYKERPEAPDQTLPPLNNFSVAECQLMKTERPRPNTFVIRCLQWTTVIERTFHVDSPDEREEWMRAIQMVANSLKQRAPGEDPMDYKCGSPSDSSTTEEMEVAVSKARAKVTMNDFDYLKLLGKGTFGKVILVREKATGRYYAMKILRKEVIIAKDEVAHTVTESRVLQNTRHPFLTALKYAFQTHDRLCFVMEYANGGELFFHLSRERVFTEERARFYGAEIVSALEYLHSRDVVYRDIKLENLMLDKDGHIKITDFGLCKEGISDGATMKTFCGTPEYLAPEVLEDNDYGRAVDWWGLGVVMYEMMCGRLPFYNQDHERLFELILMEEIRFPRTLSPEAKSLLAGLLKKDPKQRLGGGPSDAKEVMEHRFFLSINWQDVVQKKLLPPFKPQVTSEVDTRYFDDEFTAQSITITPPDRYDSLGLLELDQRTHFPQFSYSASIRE
T3 sequence (P31749 whole entry): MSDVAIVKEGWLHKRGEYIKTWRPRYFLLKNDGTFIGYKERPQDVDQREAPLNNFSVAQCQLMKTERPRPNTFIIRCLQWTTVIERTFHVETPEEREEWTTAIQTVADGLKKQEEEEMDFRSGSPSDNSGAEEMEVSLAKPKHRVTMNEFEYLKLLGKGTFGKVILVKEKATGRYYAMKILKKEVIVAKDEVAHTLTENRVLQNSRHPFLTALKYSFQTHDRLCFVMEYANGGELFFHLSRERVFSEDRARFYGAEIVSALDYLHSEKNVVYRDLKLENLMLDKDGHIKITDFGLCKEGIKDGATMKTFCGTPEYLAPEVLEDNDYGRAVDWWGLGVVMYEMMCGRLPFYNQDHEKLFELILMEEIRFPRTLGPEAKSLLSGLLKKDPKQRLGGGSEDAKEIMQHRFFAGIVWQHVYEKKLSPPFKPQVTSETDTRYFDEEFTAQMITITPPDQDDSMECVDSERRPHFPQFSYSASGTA

On to `COc1ccc2c(=O)c(-c3ccc(C4(N)CCC4)cc3)c(-c3ccccc3)oc2c1OC` [Example 4, 3-[4-(1-Amino-cyclobutyl)-phenyl]-7,8-dimethoxy-2-phenyl-chromen-4-one], for which the IC50 is not above 1000 nM in test [1], more than 10000 nM in test [2], 1000 to 10000 nM in test [3] and less than 10000 nM in test [4].
For `CN1CCN(c2ccc3oc(-c4ccccc4)c(-c4ccc(C5(N)CCC5)cc4)c(=O)c3c2)CC1` [Example 20, 3-[4-(1-Amino-cyclobutyl)-phenyl]-6-(4-methyl-piperazin-1-yl)-2-phenyl-chromen-4-one], the IC50 in test [1] is not above 1000 nM; in test [2], more than 10000 nM; in test [3], 1000 to 10000 nM. Further, in test [5], the “inhibition of AKT phosphorylation” value is “inhibition of AKT phosphorylation”.
For the compound `Cl.NC1(c2ccc(-c3c(-c4ccccc4)oc4c(=O)[nH]ccc4c3=O)cc2)CCC1` [Example 40, 3-[4-(1-Amino-cyclobutyl)-phenyl]-2-phenyl-7H-pyrano[2,3-c]pyridine-4,8-dione hydrochloride], the IC50 in test [1] was not above 1000 nM; in test [2], 1000 to 10000 nM; in test [3], not above 1000 nM; in test [4], less than 10000 nM. In test [5], the “inhibition of AKT phosphorylation” value is given as “inhibition of AKT phosphorylation”.
For `NC1(c2ccc(-c3c(-c4ccccc4)oc4c(cc(Cl)c5nc[nH]c54)c3=O)cc2)CCC1` [Example 44, 7-[4-(1-Amino-cyclobutyl)-phenyl]-4-chloro-8-phenyl-1H-chromeno[7,8-d]imidazol-6-one], the IC50 in test [1] is not above 1000 nM; in test [2], not above 1000 nM; in test [3], not above 1000 nM; in test [4], less than 10000 nM.
Consider `NC1(c2ccc(-c3c(-c4ccccc4)oc4c(CCCl)nccc4c3=O)cc2)CCC1` [Example 129, 3-(4-(1-aminocyclobutyl)phenyl)-8-(2-chloroethyl)-2-phenyl-4H-pyrano[2,3-c]pyridin-4-one], for which the IC50 was not above 1000 nM in test [1], 1000 to 10000 nM in test [2] and not above 1000 nM in test [3].
